Test results from US10988482B2, “IRAK4 inhibitor and use thereof” (BEIJING HANMI PHARMACEUTICAL CO., LTD., priority 2015, dated 2021).

The compounds below were run against IRAK4 kinase (Homo sapiens (Human), UniProt Q9NWZ3) (assay: IRAK4 kinase activity inhibition assay (ADP-Glo)). Conditions: 10 μM ATP, MBP substrate, 60 min at 25° C.
Sequence of IRAK4 kinase (Q9NWZ3 whole entry): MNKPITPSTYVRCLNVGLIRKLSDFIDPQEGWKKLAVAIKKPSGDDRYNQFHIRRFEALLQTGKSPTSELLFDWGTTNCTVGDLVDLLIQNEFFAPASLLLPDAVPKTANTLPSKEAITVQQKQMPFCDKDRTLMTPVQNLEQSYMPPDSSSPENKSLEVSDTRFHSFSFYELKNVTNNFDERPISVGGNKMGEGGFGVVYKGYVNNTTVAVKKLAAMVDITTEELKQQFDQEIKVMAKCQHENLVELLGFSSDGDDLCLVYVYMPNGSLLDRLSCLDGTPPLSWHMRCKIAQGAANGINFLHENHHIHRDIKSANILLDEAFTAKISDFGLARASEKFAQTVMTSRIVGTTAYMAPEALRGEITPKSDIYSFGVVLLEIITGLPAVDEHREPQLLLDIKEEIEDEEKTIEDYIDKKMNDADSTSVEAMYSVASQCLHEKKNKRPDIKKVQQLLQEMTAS
Format: biochemical
Experimental: IRAK4 kinase (purchased from Life Technologies, Cat. No.: PR5612U) was diluted to 2 folds of the final concentration (the final concentration is 0.76 ng/μL) with reaction buffer (40 mM Tris-HCl, pH 7.5; 20 mM MgCl2; 0.1 mg/mL BSA; 1 mM DTT), and added to a 384-well plate at 5 μL/well. The test drugs were 10-fold serial diluted from 10 μM to set six concentration points and added to the test wells of the 384-well plate at 2.5 μL/well. After incubation for 10 min at 25° C., 10 μM of ATP and […] of an enzyme reaction substrate, myelin basic protein MBP (purchased from SignalChem, Cat. No.: M42-51N) were added at 2.5 µL/well, and reacted at 25° C. for 60 minutes. After the reaction was completed, the kinase activity assay was performed using the ADP-Glo™ kinase assay kit (purchased from Promega, Cat. No.: V9102) according to the manufacture's instruction, i.e., 10 μL of ADP-Glo reaction reagent was first added and reacted at 25° C. for 40 minutes, 10 μL of the solution to be tested was taken and mixed with 10 μL of ADP-Glo detection reagent, and reacted at 25° C. for 30 minutes. The kinase activity was then detected, and the IC50 values of the test drugs were calculated.
For `CN[C@H]1C[C@H](Nc2nc(Nc3cc(C)ns3)nc3ccsc23)C1` [Compound 86, N^4-(trans-3-(methylamino)cyclobutyl)-N^2-(3-methylisothiazol-5-yl)thieno[3,2-d]pyrimidine-2,4-diamine], the IC50 was 100 to 1000 nM.
`Cc1cc(Nc2nc(N[C@H]3CC[C@H](N4CCCCC4)CC3)c3c(ccn3CCC(N)=O)n2)sn1` [Compound 108] was tested, and the IC50 was ≤ 100 nM.
`Cc1cc(Nc2nc(O[C@H]3CC[C@H](O)CC3)c3sccc3n2)sn1` [Compound 15] was tested, and the IC50 was 100 to 1000 nM.
Compound `O[C@H]1CC[C@H](Nc2nc(Nc3cnn(-c4ccncn4)c3)nc3ccsc23)CC1` [Compound 39] has an IC50 of 100 to 1000 nM.
`C[C@]1(O)CC[C@H](Nc2nc(Nc3cc(C(=O)NC4CCNCC4)n[nH]3)nc3ccsc23)CC1` [Compound 51] was tested, and the IC50 was 1000 to 10000 nM.
`CN1CCC(NC(=O)c2cc(Nc3nc(N[C@H]4CC[C@](C)(O)CC4)c4sccc4n3)sn2)CC1` [Compound 59] was tested, and the IC50 was ≤ 100 nM.
`CN[C@H]1CC[C@H](Nc2nc(Nc3cc(C)ns3)nc3ccsc23)CC1` [Compound 89] gave an IC50 of 100 to 1000 nM.
`CC(=O)N1CCC(NC(=O)c2cc(Nc3nc(N[C@H]4CC[C@](C)(O)CC4)c4sccc4n3)sn2)CC1` [Compound 60] gave an IC50 of 100 to 1000 nM.
For `Cc1cc(Nc2nc(NC3CC(O)C3)c3sccc3n2)sn1` (stereo not drawn) [Compound 2], the IC50 was ≤ 100 nM.
`Cc1cc(Nc2nc(O[C@H]3CC[C@@H](N(C)C)CC3)c3sccc3n2)sn1` [Compound 95] was tested, and the IC50 was ≤ 100 nM.
In the case of `Cc1cc(Nc2nc(N[C@H]3CC[C@H](O)CC3)c3sccc3n2)on1` [Compound 17], the IC50 is reported as 100 to 1000 nM.
For `C[C@]1(O)CC[C@H](Nc2nc(Nc3cc(C(=O)NC4CCOCC4)ns3)nc3ccsc23)CC1` [Compound 57], the IC50 was ≤ 100 nM.
`Oc1cccc(-n2cc(Nc3nc(N[C@H]4CC[C@H](O)CC4)c4sccc4n3)cn2)c1` [Compound 30] showed an IC50 of 100 to 1000 nM.
For `COCCNC(=O)c1csc(Nc2nc(N[C@H]3CC[C@](C)(O)CC3)c3sccc3n2)c1` [Compound 46], the IC50 was 100 to 1000 nM.
Work on `CCC1(O)CCC(Nc2nc(Nc3cc(C)ns3)nc3ccsc23)CC1` (stereo not drawn) [Compound 12] yielded an IC50 of 100 to 1000 nM.
`CN1CCN(c2ccc(Nc3nc(N[C@H]4CC[C@](C)(O)CC4)c4sccc4n3)cc2)CC1` [Compound 74] showed an IC50 of 1000 to 10000 nM.
`O[C@H]1CC[C@H](Nc2nc(Nc3cnn(-c4cccc(N5CCOCC5)c4)c3)nc3ccsc23)CC1` [Compound 34] gave an IC50 of 100 to 1000 nM.
For `CN[C@H]1CC[C@@H](Oc2nc(Nc3cc(C)ns3)nc3ccsc23)CC1` [Compound 90], the IC50 was 100 to 1000 nM.
Compound `C[C@]1(O)CC[C@H](Nc2nc(Nc3cccc(C(=O)NC4CCNCC4)c3)nc3ccsc23)CC1` [Compound 65] has an IC50 of 100 to 1000 nM.
For `CN1CCC(N(C)c2ccc(Nc3nc(N[C@H]4CC[C@H](O)CC4)c4sccc4n3)cc2)CC1` [Compound 70], the IC50 was 100 to 1000 nM.
For `OCCn1cc(Nc2nc(N[C@H]3CC[C@H](O)CC3)c3sccc3n2)cn1` [Compound 26], the IC50 was ≤ 100 nM.
Work on `CN1CCN(C(=O)c2csc(Nc3nc(N[C@H]4CC[C@](C)(O)CC4)c4sccc4n3)c2)CC1` [Compound 50] yielded an IC50 of 100 to 1000 nM.
With `C[C@]1(O)CC[C@H](Nc2nc(Nc3cc(C(=O)NC4CCNCC4)ns3)nc3ccsc23)CC1` [Compound 58] the IC50 was ≤ 100 nM.
`O[C@H]1CC[C@H](Nc2nc(Nc3ccncc3)nc3ccsc23)CC1` [Compound 21] was tested, and the IC50 was 1000 to 10000 nM.
For `CN[C@H]1C[C@@H](Nc2nc(Nc3cc(C)ns3)nc3ccsc23)C1` [Compound 87], the IC50 was 100 to 1000 nM.
Work on `Oc1ccccc1-n1cc(Nc2nc(N[C@H]3CC[C@H](O)CC3)c3sccc3n2)cn1` [Compound 29] yielded an IC50 of 100 to 1000 nM.
`COCCNC(=O)c1cc(Nc2nc(N[C@H]3CC[C@](C)(O)CC3)c3sccc3n2)sn1` [Compound 53] was tested, and the IC50 was 100 to 1000 nM.
With `CN[C@H]1CC[C@@H](Nc2nc(Nc3cc(C)ns3)nc3ccsc23)CC1` [Compound 88] the IC50 was 100 to 1000 nM.
In the case of `Cc1cc(Nc2nc(N[C@H]3CC[C@@H](N(C)C)CC3)c3sccc3n2)sn1` [Compound 92], the IC50 is reported as 100 to 1000 nM.
For `Cn1cc(Nc2nc(O[C@H]3CC[C@@H](N)C3)c3sccc3n2)cn1` [Compound 85], the IC50 was 100 to 1000 nM.
In the case of `O[C@H]1CC[C@H](Nc2nc(Nc3cnn(-c4ccccc4)c3)nc3ccsc23)CC1` [Compound 25, trans-4-((2-((1-phenyl-1H-pyrazol-4-yl)amino)thieno[3,2-d]pyrimidin-4-yl)amino)cyclohexanol], the IC50 is reported as ≤ 100 nM.
In the case of `C[C@]1(O)CC[C@H](Nc2nc(Nc3cc(C(=O)NCCCO)ns3)nc3ccsc23)CC1` [Compound 52], the IC50 is reported as ≤ 100 nM.
Compound `CCN(CC)[C@H]1CC[C@@H](Nc2nc(Nc3cc(C)ns3)nc3ccsc23)CC1` [Compound 93] has an IC50 of 100 to 1000 nM.
With `C[C@]1(O)CC[C@H](Nc2nc(Nc3cc(C(=O)N[C@@H]4CCNC4)cs3)nc3ccsc23)CC1` [Compound 48] the IC50 was ≤ 100 nM.
In the case of `Cc1cc(Nc2nc(N[C@H]3CC[C@H](N4CCCC4)CC3)c3sccc3n2)sn1` [Compound 99], the IC50 is reported as ≤ 100 nM.
For `COc1cc(Nc2nc(N[C@@H]3C[C@H](CO)[C@@H](O)[C@H]3O)c3sccc3n2)ccn1` [Compound 20], the IC50 was ≤ 100 nM.
For `Cc1cc(Nc2nc(O[C@H]3CC[C@H](N)CC3)c3sccc3n2)sn1` [Compound 83], the IC50 was ≤ 100 nM.
`CO[C@H]1CC[C@H](Nc2nc(Nc3cc(C)ns3)nc3ccsc23)CC1` [Compound 16] showed an IC50 of 100 to 1000 nM.
`C[C@]1(O)CC[C@H](Nc2nc(Nc3cc(C(=O)NCC4CCNCC4)ns3)nc3ccsc23)CC1` [Compound 54] was tested, and the IC50 was ≤ 100 nM.
For `Oc1ccc(-n2cc(Nc3nc(N[C@H]4CC[C@H](O)CC4)c4sccc4n3)cn2)cc1` [Compound 31], the IC50 was 100 to 1000 nM.
Work on `Cc1cc(Nc2nc(N[C@H]3CC[C@H](N)CC3)c3sccc3n2)sn1` [Compound 80] yielded an IC50 of 100 to 1000 nM.
With `C[C@]1(O)CC[C@H](Nc2nc(Nc3cc(C(=O)N[C@@H]4CCNC4)ns3)nc3ccsc23)CC1` [Compound 55] the IC50 was ≤ 100 nM.
In the case of `Cc1cc(Nc2nc(N(C)C3CCC(C)(O)CC3)c3sccc3n2)sn1` (stereo not drawn) [Compound 24, 1-methyl-4-(methyl(2-((3-methylisothiazol-5-yl)amino)thieno[3,2-d]pyrimidin-4-yl)amino)cyclohexanol], the IC50 is reported as 1000 to 10000 nM.
`Cc1cc(Nc2nc(O[C@H]3CC[C@H](N4CCCCC4)CC3)c3sccc3n2)sn1` [Compound 102] was tested, and the IC50 was ≤ 100 nM.
In the case of `O[C@H]1CC[C@H](Nc2nc(Nc3cnn(-c4cncnc4)c3)nc3ccsc23)CC1` [Compound 40], the IC50 is reported as 100 to 1000 nM.
In the case of `Cc1cc(Nc2nc(N[C@H]3CC[C@@H](O)C3)c3sccc3n2)sn1` [Compound 4], the IC50 is reported as ≤ 100 nM.
With `CNC1CCN(C(=O)c2ccc(Nc3nc(N[C@H]4CC[C@H](O)CC4)c4sccc4n3)cc2)CC1` [Compound 67] the IC50 was 100 to 1000 nM.
`Cc1cc(Nc2nc(N[C@@H]3C[C@H](CO)[C@@H](O)[C@H]3O)c3sccc3n2)sn1` [Compound 7] was tested, and the IC50 was ≤ 100 nM.
Work on `CN1CCN(C(=O)c2cc(Nc3nc(N[C@H]4CC[C@H](O)CC4)c4sccc4n3)sn2)CC1` [Compound 45, (5-((4-((trans-4-hydroxycyclohexyl)amino)thieno[3,2-d]pyrimidin-2-yl)amino)isothiazol-3-yl)(4-methylpiperazin-1-yl)methanone] yielded an IC50 of 100 to 1000 nM.
In the case of `CN(C)C1CCN(C(=O)c2ccc(Nc3nc(N[C@H]4CC[C@H](O)CC4)c4sccc4n3)cc2)CC1` [Compound 68], the IC50 is reported as 100 to 1000 nM.
With `Cc1cc(Nc2nc(N[C@H]3CC[C@H](N(CCO)CCO)CC3)c3sccc3n2)sn1` [Compound 97] the IC50 was ≤ 100 nM.
`C[C@]1(O)CC[C@H](Nc2nc(Nc3ccc(C(=O)N[C@@H]4CCNC4)cc3)nc3ccsc23)CC1` [Compound 64] gave an IC50 of 100 to 1000 nM.
`Cc1cncc(-n2cc(Nc3nc(N[C@H]4CC[C@H](O)CC4)c4sccc4n3)cn2)c1` [Compound 42] was tested, and the IC50 was 100 to 1000 nM.
Work on `Cc1cc(-n2cc(Nc3nc(N[C@H]4CC[C@H](O)CC4)c4sccc4n3)cn2)ccn1` [Compound 43] yielded an IC50 of 100 to 1000 nM.
`O[C@H]1CC[C@H](Nc2nc(Nc3cnn(-c4ccccn4)c3)nc3ccsc23)CC1` [Compound 36] showed an IC50 of 100 to 1000 nM.
Work on `C[C@]1(O)CC[C@H](Nc2nc(Nc3cnn(C(=O)CC4CCNCC4)c3)nc3ccsc23)CC1` [Compound 44] yielded an IC50 of 100 to 1000 nM.
In the case of `Cc1cc(Nc2nc(N[C@@H]3CC[C@H](O)[C@@H](O)C3)c3sccc3n2)sn1` [Compound 14], the IC50 is reported as ≤ 100 nM.
Work on `Cc1cc(Nc2nc(O[C@H]3CC[C@@H](N)C3)c3sccc3n2)sn1` [Compound 81] yielded an IC50 of 100 to 1000 nM.
`COc1cc(Nc2nc(N[C@H]3CC[C@](C)(O)CC3)c3sccc3n2)ccn1` [Compound 23] was tested, and the IC50 was 100 to 1000 nM.
In the case of `C[C@]1(O)CC[C@H](Nc2nc(Nc3cc(C(=O)Nc4ccncc4)ns3)nc3ccsc23)CC1` [Compound 63], the IC50 is reported as 100 to 1000 nM.
For `C[C@]1(O)CC[C@H](Nc2nc(Nc3cc(C(=O)N[C@H]4CCNC4)cs3)nc3ccsc23)CC1` [Compound 47], the IC50 was ≤ 100 nM.
Compound `O[C@H]1CC[C@H](Nc2nc(Nc3cnn(C4CCCC4)c3)nc3ccsc23)CC1` [Compound 27] has an IC50 of 100 to 1000 nM.
For `O[C@H]1CC[C@H](Nc2nc(Nc3ccc(OC4CCOC4)cc3)nc3ccsc23)CC1` (stereo partly drawn) [Compound 69, trans-4-((2-((4-((tetrahydrofuran-3-yl)oxy)phenyl)amino)thieno[3,2-d]pyrimidin-4-yl)amino)cyclohexanol], the IC50 was 100 to 1000 nM.
For `Cc1cc(Nc2nc(N[C@H]3CC[C@@H](N)CC3)c3sccc3n2)sn1` [Compound 79], the IC50 was ≤ 100 nM.
`O[C@H]1CC[C@H](Nc2nc(Nc3cnn(C4CCCNC4)c3)nc3ccsc23)CC1` (stereo partly drawn) [Compound 28] was tested, and the IC50 was ≤ 100 nM.
Work on `C[C@]1(O)CC[C@H](Nc2nc(Nc3ccc(C(=O)NC4CCNCC4)cc3)nc3ccsc23)CC1` [Compound 66] yielded an IC50 of 100 to 1000 nM.
